Drawing on patent US8030321B2, “Benzofuro- and benzothienopyrimidine modulators of the histamine H4 receptor” (Janssen Pharmaceutica, NV, priority 2006, dated 2011), this text covers Ki for 35 compounds.

One may read the Ki as the equilibrium dissociation constant of an inhibitor or competing ligand from its target.

The structures appear in SMILES notation. Where a name gives a salt, the structure may show the parent alone.

The first assay deals with T1, human histamine H4 receptor (Homo sapiens, UniProt Q9H3N8).
T1 construct: expressed in transfected cells; host or cells: SK-N-MC cells or COS7 cells, transiently transfected; cell membranes used
T1 sequence (Q9H3N8 whole entry): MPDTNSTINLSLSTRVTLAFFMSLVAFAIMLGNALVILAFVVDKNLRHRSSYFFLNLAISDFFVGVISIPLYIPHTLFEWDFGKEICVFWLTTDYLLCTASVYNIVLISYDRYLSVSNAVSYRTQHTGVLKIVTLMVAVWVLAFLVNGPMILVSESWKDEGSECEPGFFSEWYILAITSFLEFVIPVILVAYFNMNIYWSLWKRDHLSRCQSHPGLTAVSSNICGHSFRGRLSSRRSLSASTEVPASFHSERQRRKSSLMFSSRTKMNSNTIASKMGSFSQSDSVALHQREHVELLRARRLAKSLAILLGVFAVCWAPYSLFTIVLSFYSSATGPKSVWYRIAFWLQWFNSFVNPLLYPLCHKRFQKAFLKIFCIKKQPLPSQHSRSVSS
As to the kind of experiment: Binding Assay on Recombinant Human Histamine H4 Receptor.
Details: not given
The essentials: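 Membranes from SK-N-MC or COS7 cells transiently transfected with human H4 receptor were incubated with ³H-histamine (5-70 nM); nonspecific binding defined with 10,000 nM histamine. Bound radioactivity collected by GF/C filtration and scintillation counting; test compounds assessed by displacement of ³H-ligand binding across concentrations.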
Turning to `Nc1nc(N2C[C@@H]3C[C@H]2CN3)c2sc3ccc(Br)cc3c2n1` [Example 49, (S,S)-8-Bromo-4-(2,5-diaza-bicyclo[2.2.1]hept-2-yl)-benzo[4,5]thieno[3,2-d]pyrimidin-2-ylamine hydrochloride salt], the Ki came to 350 nM. On the same count and under the same terms, to `Nc1nc(N2CCN3CCCC3C2)c2oc3ccc(F)cc3c2n1` (centres unmarked) [Example 40, 8-Fluoro-4-(hexahydro-pyrrolo[1,2-a]pyrazin-2-yl)-benzo[4,5]furo[3,2-d]pyrimidin-2-ylamine trifluoroacetic acid salt] belongs 44 nM. Take `Nc1nc(N2CC3CCCNC3C2)c2oc3ncccc3c2n1` (centres unmarked) [Example 43, 8-(Octahydro-pyrrolo[3,4-b]pyridin-6-yl)-9-oxa-1,5,7-triaza-fluoren-6-ylamine]: the Ki was determined as 87 nM.

The assay is the same for the next values; noted with them: competition binding with 3H-histamine (5 nM), membranes of SK-N-MC or COS7 cells expressing human H4 receptor; Cheng-Prusoff, KD 5 nM; average of results obtained; read-out: Ki.
`CN[C@H]1CCN(c2nc(N)nc3c2sc2ccc(Br)cc23)C1` [Example 47, (S)-8-Bromo-4-(3-methylamino-pyrrolidin-1-yl)-benzo[4,5]thieno[3,2-d]pyrimidin-2-ylamine hydrochloride salt]: the Ki came out at 100 nM. On to `CN[C@H]1CCN(c2nc(N)nc3c2sc2cc(Cl)ccc23)C1` [Example 61, (S)-7-Chloro-4-(3-methylamino-pyrrolidin-1-yl)-benzo[4,5]thieno[3,2-d]pyrimidin-2-ylamine trifluoroacetic acid salt], for which the Ki turned out to be 33 nM.

In the case of `CC(C)N1CCCN(c2nc(N)nc3c2oc2ccc(Cl)cc23)CC1` [Example 3, 8-Chloro-4-(4-isopropyl-[1,4]diazepan-1-yl)-benzo[4,5]furo[3,2-d]pyrimidin-2-ylamine trifluoroacetic acid salt], the Ki was determined as 76 nM. Same read-out and setting: for `CN[C@@H]1CCN(c2nc(N)nc3c2sc2cc(Cl)ccc23)C1` [Example 60, (R)-7-Chloro-4-(3-methylamino-pyrrolidin-1-yl)-benzo[4,5]thieno[3,2-d]pyrimidin-2-ylamine trifluoroacetic acid salt] the value was 5.2 nM; for `Nc1nc(N2CC3CNCC3C2)c2oc3ccc(Cl)cc3c2n1` (centres unmarked) [Example 27, 8-Chloro-4-(hexahydro-pyrrolo[3,4-c]pyrrol-2-yl)-benzo[4,5]furo[3,2-d]pyrimidin-2-ylamine trifluoroacetic acid salt], 110 nM. On the same count and under the same terms, for `Nc1nc(N2CC(N)C2)c2oc3ccc(C(F)(F)F)cc3c2n1` [Example 144, 4-(3-Amino-azetidin-1-yl)-8-trifluoromethyl-benzo[4,5]furo[3,2-d]pyrimidin-2-ylamine] the value was greater than 10000 nM; for `Nc1nc(N2CCC[C@H](N)C2)c2oc3ccc(Cl)cc3c2n1` [Example 13, (S)-4-(3-Amino-piperidin-1-yl)-8-chloro-benzo[4,5]furo[3,2-d]pyrimidin-2-ylamine trifluoroacetic acid salt], 9.6 nM; for `CN[C@@H]1CCN(c2nc(N)nc3c2oc2c(Cl)cc(Cl)cc23)C1` [Example 5, (R)-6,8-Dichloro-4-(3-methylamino-pyrrolidin-1-yl)-benzo[4,5]furo[3,2-d]pyrimidin-2-ylamine trifluoroacetic acid salt], 1.9 nM. Same read-out and setting: to `CN[C@@H]1CCN(c2nc(N)nc3c2sc2ccc(Cl)cc23)C1` [Example 66, (R)-8-Chloro-4-(3-methylamino-pyrrolidin-1-yl)-benzo[4,5]thieno[3,2-d]pyrimidin-2-ylamine trifluoroacetic acid salt] belongs 1 nM; to `Nc1nc(N2CCC[C@@H](N)C2)c2oc3ccc(Cl)cc3c2n1` [Example 28, (R)-4-(3-Amino-piperidin-1-yl)-8-chloro-benzo[4,5]furo[3,2-d]pyrimidin-2-ylamine trifluoroacetic acid salt], 110 nM; to `Nc1nc(N2CCNCC2)c2oc3ccccc3c2n1` [Example 23, 4-piperazin-1-yl-benzo[4,5]furo[3,2-d]pyrimidin-2-ylamine trifluoroacetic acid salt], 21 nM. Take `CN[C@@H]1CCN(c2nc(N)nc3c2oc2ccc(Cl)cc23)C1` [Example 18, (R)-8-Chloro-4-(3-methylamino-pyrrolidin-1-yl)-benzo[4,5]furo[3,2-d]pyrimidin-2-ylamine]: the Ki was 0.42 nM. As to `Nc1nc(N2CC(N)C2)c2oc3cccc(Cl)c3c2n1` [Example 156, 4-(3-Amino-azetidin-1-yl)-9-chloro-benzo[4,5]furo[3,2-d]pyrimidin-2-ylamine trifluoroacetic acid salt], the Ki was greater than 10000 nM.

As for `Nc1nc(N2CCNCC2)c2oc3cccc(C(F)(F)F)c3c2n1` [Example 90, 4-piperazin-1-yl-9-trifluoromethyl-benzo[4,5]furo[3,2-d]pyrimidin-2-ylamine citrate salt], the Ki was 120 nM. The same measure, in the same setting: to `Nc1nc(N2CC[C@@H]3CNC[C@@H]32)c2oc3ccc(Cl)cc3c2n1` (relative stereo) [Example 95, (cis)-8-Chloro-4-(hexahydro-pyrrolo[3,4-b]pyrrol-1-yl)-benzo[4,5]furo[3,2-d]pyrimidin-2-ylamine trifluoroacetic acid salt] belongs 140 nM. For `Nc1nc(N2CC3CCCNC3C2)c2sc3cc(C(F)(F)F)ccc3c2n1` (centres unmarked) [Example 58, 4-(Octahydro-pyrrolo[3,4-b]pyridin-6-yl)-7-trifluoromethyl-benzo[4,5]thieno[3,2-d]pyrimidin-2-ylamine trifluoroacetic acid salt], the Ki came to 300 nM. The same measure, in the same setting: to `CN[C@H]1CCN(c2nc(N)nc3c2sc2cc(C(F)(F)F)ccc23)C1` [Example 51, (S)-4-(3-Methylamino-pyrrolidin-1-yl)-7-trifluoromethyl-benzo[4,5]thieno[3,2-d]pyrimidin-2-ylamine trifluoroacetic acid salt] belongs greater than 10000 nM; to `Nc1nc(N2CCN3CCCCC3C2)c2oc3ccc(Cl)cc3c2n1` (centres unmarked) [Example 8, 8-Chloro-4-(octahydro-pyrido[1,2-a]pyrazin-2-yl)-benzo[4,5]furo[3,2-d]pyrimidin-2-ylamine], 16 nM; to `CN1CCCN(c2nc(N)nc3c2oc2ccc(Cl)cc23)CC1` [Example 10, 8-Chloro-4-(4-methyl-[1,4]diazepan-1-yl)-benzo[4,5]furo[3,2-d]pyrimidin-2-ylamine], 0.74 nM. The same measure, in the same setting: for `CN1CCN(c2nc(N)nc3c2oc2ccc(C(F)(F)F)cc23)CC1` [Example 139, 4-(4-Methyl-piperazin-1-yl)-8-trifluoromethyl-benzo[4,5]furo[3,2-d]pyrimidin-2-ylamine trifluoroacetic acid salt] the value was 0.8 nM; for `OCCNc1nc(N2C[C@@H]3C[C@H]2CN3)c2oc3ccc(Cl)cc3c2n1` [Example 125, (S,S)-2-[8-Chloro-4-(2,5-diaza-bicyclo[2.2.1]hept-2-yl)-benzo[4,5]furo[3,2-d]pyrimidin-2-ylamino]-ethanol], 580 nM. Regarding `Nc1nc(N2CC3CCCNC3C2)c2oc3c(Cl)cc(Cl)cc3c2n1` (centres unmarked) [Example 2, 6,8-Dichloro-4-(octahydro-pyrrolo[3,4-b]pyridin-6-yl)-benzo[4,5]furo[3,2-d]pyrimidin-2-ylamine trifluoroacetic acid salt], the Ki came out at 7.1 nM.

Take `CN[C@@H]1CCN(c2nc(N)nc3c2oc2cccc(F)c23)C1` [Example 136, (R)-9-Fluoro-4-(3-methylamino-pyrrolidin-1-yl)-benzo[4,5]furo[3,2-d]pyrimidin-2-ylamine trifluoroacetic acid salt]: the Ki was 10 nM. The same measure, in the same setting: to `CN(C)[C@@H]1CCN(c2nc(N)nc3c2oc2ccccc23)C1` [Example 22, (R)-4-(3-Dimethylamino-pyrrolidin-1-yl)-benzo[4,5]furo[3,2-d]pyrimidin-2-ylamine trifluoroacetic acid salt] belongs 12 nM; to `Nc1nc(NC2CNC2)c2oc3ccc(Cl)cc3c2n1` [Example 111, N^4-Azetidin-3-yl-8-chloro-benzo[4,5]furo[3,2-d]pyrimidine-2,4-diamine trifluoroacetic acid salt], 330 nM. On the same count and under the same terms, to `CN(C)[C@@H]1CCN(c2nc(N)nc3c2oc2ccc(Cl)cc23)C1` [Example 24, (R)-8-Chloro-4-(3-dimethylamino-pyrrolidin-1-yl)-benzo[4,5]furo[3,2-d]pyrimidin-2-ylamine trifluoroacetic acid salt] belongs 5.5 nM; to `CN[C@@H]1CCN(c2nc(N)nc3c2oc2ccc(Br)cc23)C1` [Example 19, (R)-8-Bromo-4-(3-methylamino-pyrrolidin-1-yl)-benzo[4,5]furo[3,2-d]pyrimidin-2-ylamine trifluoroacetic acid salt], 0.74 nM. As to `Nc1nc(N2CC3C(N)C3C2)c2oc3ccc(Cl)cc3c2n1` (centres unmarked) [Example 78, 4-(6-Amino-3-aza-bicyclo[3.1.0]hex-3-yl)-8-chloro-benzo[4,5]furo[3,2-d]pyrimidin-2-ylamine trifluoroacetic acid salt], the Ki was 22 nM. In the case of `Nc1nc(N2CCC[C@H](N)C2)c2oc3ccc(Cl)c(Cl)c3c2n1` [Example 93, (S)-4-(3-Amino-piperidin-1-yl)-8,9-dichloro-benzo[4,5]furo[3,2-d]pyrimidin-2-ylamine trifluoroacetic acid salt], the Ki is greater than 10000 nM. As to `CN1CCN(c2nc(N)nc3c2oc2ccc(Cl)cc23)CC1` [Example 1, 8-Chloro-4-(4-methyl-piperazin-1-yl)-benzo[4,5]furo[3,2-d]pyrimidin-2-ylamine], the Ki was 0.14 nM. On the same count and under the same terms, for `Nc1nc(N2CCC(N)C2)c2oc3ccc(Cl)cc3c2n1` (centres unmarked) [Example 16, 4-(3-Amino-pyrrolidin-1-yl)-8-chloro-benzo[4,5]furo[3,2-d]pyrimidin-2-ylamine trifluoroacetic acid salt] the value was 2.3 nM; for `Nc1nc(N2C[C@@H]3C[C@H]2CN3)c2oc3ccc(Cl)c(Cl)c3c2n1` [Example 98, (S,S)-8,9-Dichloro-4-(2,5-diaza-bicyclo[2.2.1]hept-2-yl)-benzo[4,5]furo[3,2-d]pyrimidin-2-ylamine trifluoroacetic acid salt], greater than 10000 nM.
